Measurements taken from patent publication US8927538B2, “Carbazole linked pyrrolo[2,1-c][1,4]benzodiazefine hybrids as potential anticancer agents and process for the preparation thereof” (Council of Scientific & Industrial Research, priority 2010, dated 2015).

How the values were obtained:
[1] = system: A-2780; assay: ACTREC in vitro cytotoxicity, A-2780; assay type: cell-based; conditions: Ovary A-2780 (Table 4)
Experimental: (§1) In vitro biological activity studies were carried out at the Advance Center for Treatment Research & Education in Cancer.

[2] = system: HOP-62; assay: ACTREC in vitro cytotoxicity, HOP-62; assay type: cell-based
Experimental: as §1

[3] = system: GURAV; assay: ACTREC in vitro cytotoxicity, GURAV; assay type: cell-based
Experimental: as §1

[4] = system: MCF7; assay: ACTREC in vitro cytotoxicity, MCF7; assay type: cell-based
Experimental: as §1

[5] = system: Si-Ha; assay: ACTREC in vitro cytotoxicity, Si-Ha; assay type: cell-based
Experimental: as §1

[6] = system: Colo-205; assay: ACTREC in vitro cytotoxicity, Colo-205; assay type: cell-based
Experimental: as §1

[7] = system: KB; assay: ACTREC in vitro cytotoxicity, KB; assay type: cell-based
Experimental: as §1

[8] = system: Zr-75-1; assay: ACTREC in vitro cytotoxicity, Zr-75-1; assay type: cell-based
Experimental: as §1

[9] = system: duplex-form calf thymus DNA (CT-DNA); assay: Thermal denaturation studies (DNA binding); conditions: [PBD]:[DNA] molar ratio 1:5, CT-DNA 100 μM, ligand 20 μM; for ΔTm after incubation at 37 °C for 0 h: pH 7.00, 0 h; for ΔTm after incubation at 37 °C for 18 h: pH 7.00, 18 h
Experimental: Compounds have been subjected to thermal denaturation studies with duplex-form calf thymus DNA (CT-DNA) using a modification of a reported procedure. Working solutions in aqueous buffer ([…] NaH2PO4/Na2HPO4, 1 mM Na2EDTA, pH 7.00±0.01) containing CT-DNA (100 μM in phosphate) and the PBD (20 μM) have been prepared by addition of concentrated PBD solutions in DMSO to obtain a fixed [PBD]/[DNA] molar ratio of 1:5. The DNA-PBD solutions have been incubated at 37° C. for 0 and 18 hrs prior to analysis. Samples have been monitored at 260 nm using a Beckman DU-800 spectrophotometer fitted with high performance temperature controller, and heated at 1° C. min^−1 in the 40-110° C. range. DNA helix→coil transition temperatures (Tm) have been obtained from the maxima in the d(A260)/dT derivative plots. Drug-induced alterations in DNA melting behavior are given by: […]Tm=Tm(DNA+PBD)-Tm(DNA alone), where the Tm value for the PBD-free CT-DNA is 68.5 […]0.01.
The DNA-binding for these C8-linked carbazole-PBD hybrids has been examined by thermal denaturation studies using calf thymus (CT) DNA. […] Data for 6a, 6b, 6c, 14a, 14b, and 14d and DC-81 are included in Table 5 for comparison.

[10] = system: PC-3; assay: ACTREC in vitro cytotoxicity, PC-3; assay type: cell-based
Experimental: as §1

[11] = system: A-549; assay: ACTREC in vitro cytotoxicity, A-549; assay type: cell-based; conditions: Lung A-549 (Table 4)
Experimental: as §1

Compound | GI50 [1] [µM] | GI50 ([2]; Lung HOP-62 (Table 4)) [µM] | GI50 ([2]; non small cell lung (HOPO62)) [µM] | GI50 ([3]; Oral GURAV (Table 4)) [µM] | GI50 ([4]; Breast MCF7 (Table 4)) [µM] | GI50 ([4]; breast (MCF-7)) [µM] | GI50 ([5]; Cervix Si-Ha (Table 4)) [µM] | GI50 ([6]; Colon Colo-205 (Table 4)) [µM] | GI50 ([6]; colon (Colo205)) [µM] | GI50 ([7]; Oral KB (Table 4)) [µM] | GI50 ([8]; Breast Zr-75-1 (Table 4)) [µM] | ΔTm after incubation at 37 °C for 0 h [9] [°C] | ΔTm after incubation at 37 °C for 18 h [9] [°C] | GI50 ([8]; breast (Zr-75-1)) [µM] | GI50 ([10]; Prostate PC-3 (Table 4)) [µM] | GI50 [11] [µM] | GI50 ([5]; Cervix (Si-Ha)) [µM] | GI50 ([10]; prostate (PC-3)) [µM] | GI50 ([3]; oral (GURAV), text b39) [µM] | GI50 ([7]; oral (KB), text b39) [µM]
COc1cc2c(cc1OCCCn1c3ccccc3c3ccccc31)N=C[C@@H]1CCCN1C2=O [Compound 6a, 7-Methoxy-8-[3-(9H-9-carbazoly)propoxy]-(11aS)-1,2,3,11a-tetrahydro-5H-pyrrolo[2,1-c][1,4]-benzodiazepin-5-one] | 1.51 | 1.93 | 1.93 | 1.6 | 1.85 | 1.85 | 1.7 | 1.68 | 1.68 | 1.87 | 1.89 | 4.2 | 5.1 | – | – | – | – | – | – | –
COc1cc2c(cc1OCCCCn1c3ccccc3c3ccccc31)N=C[C@@H]1CCCN1C2=O [Compound 6b, 7-Methoxy-8-[4-(9H-9-carbazoly)butoxy]-(11aS)-1,2,3,11a-tetrahydro-5H-pyrrolo[2,1-c][1,4]benzodiazepin-5-one] | 1.57 | 1.93 | 1.93 | 1.6 | 2.21 | – | 1.7 | 1.7 | 1.7 | 1.87 | 1.81 | 4.3 | 4.8 | 1.81 | – | – | – | – | – | –
COc1cc2c(cc1OCCCCCCn1c3ccccc3c3ccccc31)N=C[C@@H]1CCCN1C2=O [Compound 6d, 7-Methoxy-8-[6-(9H-9-carbazoly)hexyloxy]-(11aS)-1,2,3,11a-tetrahydro-5H-pyrrolo[2,1-c][1,4]-benzodiazepin-5-one] | 1.7 | 1.58 | 1.58 | 1.71 | 1.65 | 1.65 | 1.58 | 1.62 | 1.62 | 1.95 | 2.14 | – | – | – | – | – | – | – | – | –
COc1ccc(-c2ccc3c(c2)c2cc(-c4ccc(OC)cc4)ccc2n3CCCOc2cc3c(cc2OC)C(=O)N2CCC[C@H]2C=N3)cc1 [Compound 10d, 7-Methoxy-8-{3-[3,6-di(4-methoxyphenyl)-9H-9-carbazoly]propoxy}-(11aS)-1,2,3,11a-tetrahydro-5H-pyrrolo[2,1-c][1,4]-benzodiazepin-5-one] | 0.15 | 0.11 | 0.11 | – | 0.13 | 0.13 | 0.17 | 1.7 | 1.7 | 0.18 | – | – | – | – | 0.16 | 2.1 | – | – | – | –
COc1ccc(-c2ccc3c(c2)c2cc(-c4ccc(OC)cc4)ccc2n3CCCCOc2cc3c(cc2OC)C(=O)N2CCC[C@H]2C=N3)cc1 [Compound 10e, 7-Methoxy-8-{4-[3,6-di(4-methoxyphenyl)-9H-9-carbazoly]butoxy}-(11aS)-1,2,3,11a-tetrahydro-5H-pyrrolo[2,1-c][1,4]-benzodiazepin-5-one] | 2 | – | – | – | 0.15 | 0.15 | 0.17 | 2.9 | – | – | – | – | – | – | 0.16 | – | 0.17 | 0.16 | – | –
COc1cc2c(cc1OCCCN1CCN(CCCCn3c4ccccc4c4ccccc43)CC1)N=C[C@@H]1CCCN1C2=O [Compound 14b, 7-Methoxy-8-(3-{4-[4-(9H-9-carbazoly)butyloxy]piperazino}propyloxy)-(11aS)-1,2,3,11a-tetrahydro-5H-pyrrolo[2,1-c][1,4]benzodiazepin-5-one] | 0.11 | 0.14 | 0.14 | 0.13 | 0.15 | 0.15 | 0.13 | 0.14 | 0.14 | 0.14 | 0.15 | 7.8 | 8.5 | 0.15 | – | – | – | – | – | –
COc1cc2c(cc1OCCCCN1CCN(CCCCn3c4ccccc4c4ccccc43)CC1)N=C[C@@H]1CCCN1C2=O [Compound 14d, 7-Methoxy-8-(4-{-4-[4-(9H-9-carbazoly)butyloxy]piperazino}butyloxy)-(11aS)-1,2,3,11a-tetrahydro-5H-pyrrolo[2,1-c][1,4]benzodiazepin-5-one] | 0.16 | 1.82 | – | 0.17 | 0.17 | 0.15 | 0.17 | 0.16 | 0.16 | 0.15 | 0.15 | 7.9 | 8.4 | 0.17 | – | – | – | – | 0.17 | 0.15
